Assay [1] addresses T1, Pin1 (Homo sapiens, UniProt Q13526).
T1 construct: purchased Anaspec
In words: Evaluation of Pin1 enzyme inhibitory activity (Sensolyte Green Pin1 assay kit). It counts as biochemical. In a few lines: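 Pin1 activity was measured with a fluorogenic kit assay (Sensolyte Green) using substrate prepared at 1 μM and protein at 50 μg/ml, both pre-mix concentrations. Compound working solutions were 100, 10, 1 or 0.1 μM, and reactions ran 2 h at room temperature in the dark, read at 490/520 nm. Inhibition was graded A–D by concentration.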

For assay [2], the system named is MDA-MB 231 triple negative breast cancer cell line. Put plainly: MDA-MB 231 protein expression inhibition (Western blotting, cycline D1 vs Vinculin). The settings on record: Homo sapiens, compound 10 μM, 72 hours, cycline D1 Western blot, read-out: MBA-MB-231 (amount of the protein compared to the DMSO-treated control group). It counts as cell-based. How it is done: In order to confirm the ability of the compound represented by formula 1 according to the present invention to inhibit the protein expression of MDA-MB 231 triple negative breast cancer cell line, the following experiment was performed, and the results are shown in Table 3 below.
MDA-MB-231 cells were cultured in a 5% CO2 incubator at 37° C. using RPMI medium supplemented with 10% FBS and 1% penicillin/streptomycin.
The cells were washed with PBS once a day, and then replaced with a new medium. The cells grown at the density of at least 90% 1 day before the experiment were detached using trypsin/EDTA, and then plated at the density of 100,000 per well in a 6-well plate.
On the next day of culture, the compound prepared in each example was treated at a concentration of 10 μM, and DMSO was treated at a concentration of 0.1% of the total as the control, followed by incubation for 72 hours. After 72 hours, the cells were washed twice with PBS, collected by scraping, and centrifuged at 13,000 rpm for 3 minutes to remove all the supernatant and only cells were taken.
RIPA buffer (containing 1× protease inhibitor and phosphatase inhibitor) was added to the prepared cells (80 μl/well), and the plate was shaken once every 5 minutes to disrupt the cells for a total of 15 minutes. The disrupted cells were centrifuged at 13,000 rpm for 15 minutes to collect only the supernatant protein. The obtained protein was quantified using a BCA protein quantification kit (Pierece, MA, USA), and a total of 10 μg of the protein was used for Western blotting.
The protein sample was isolated by 10% SDS-PAGE, and transferred to a PVDF membrane. Anti-human cycline D1 antibody (Cell signal) and anti-Vinculin antibody were bound to the protein sample, and the expression of the protein was measured by using an ECL reagent and LAS4000 equipment. The measurement results were quantified and generalized using ImageJ. The results are shown in Table 3 below by dividing the grades A to D according to the amount of the protein compared to the DMSO-treated control group.
On the technique in general: In western blotting, separated proteins are transferred to a membrane and probed.

Assay [3] relates to A2780-SP cells (ovarian cancer stem cells). Put plainly: Sphere cell viability of A2780-SP cells (Cell-titer Glo). The class given is cell-based. In a few lines: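 A2780-SP ovarian cancer stem cells grown as spheres in ultra-low-attachment wells (1,500 cells/well) in neurobasal stem-cell medium with bFGF, EGF, B27. Compound added the day after plating, re-dosed on day 4, 8-day culture total; viability by CellTiter-Glo luminescence.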

The subject of assay [4] is A2780 cells (ovarian cancer cells). In words: Cell viability of A2780 cells (Cell-titer Glo). It counts as cell-based. Particulars: Homo sapiens. The gist of the method:
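A2780 ovarian cancer cells seeded at 3000 viable cells/well in RPMI-1640 with 10% FBS, dosed the next day and grown 3 days. Viability measured by Cell-titer Glo luminescence.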

[5] abbreviates: concentration at which the Pin1 enzyme activity is inhibited, 2 hours at room temperature, fluorescence 490 nm/520 nm, read-out: Pin 1 inhibition.
Where [6] appears, read: 192 h, sphere cell viability, culture for 8 days, read-out: A2780-SP.
Setting [7] is: Table 5, read-out: the concentration (second list of b710, cell line not named; matches A2780-SP column).
Setting [8] is: Table 2, read-out: concentration at which Pin1 inhibitory activity was exhibited.
Where [9] appears, read: 72 h, cell viability, culture for 3 days, read-out: A2780.
Setting [10] is: A2780, Table 5, read-out: A2780 cell concentration.

Read-outs that look alike come from different tables or passages of the source.

Drawing on US12583818B2 (DAEGU-GYEONGBUK MEDICAL INNOVATION FOUNDATION, priority 2020, dated 2026), this text covers IC50 and activity for 20 molecules.

T1 sequence (Q13526 whole entry): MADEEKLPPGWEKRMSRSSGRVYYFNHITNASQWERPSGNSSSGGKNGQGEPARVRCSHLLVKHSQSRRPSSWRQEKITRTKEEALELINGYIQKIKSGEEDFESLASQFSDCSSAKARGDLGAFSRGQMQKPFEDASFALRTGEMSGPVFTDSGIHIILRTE

As to `CN1CCN(CCCOc2ccc(S(=O)(=O)NCCCc3c[nH]c4ccccc34)cc2)CC1` [Example 31, N-(3-(1H-indol-3-yl)propyl)-4-(3-(4-methylpiperazin-1-yl)propoxy)benzenesulfonamide], the IC50 in assay [1] (setting [5]) lay within 1 to 10 µM. In addition, the activity at 10 µM in assay [2] is 50 to 70%.
`CCN(CC)CCCOc1ccc(S(=O)(=O)NCCCc2c[nH]c3ccccc23)cc1` [Example 35, N-(3-(1H-indol-3-yl)propyl)-4-(3-(diethylamino)propoxy)benzenesulfonamide]: the IC50 in assay [1] (setting [5]) was in the range of 10 to 100 µM. Moreover, the activity at 10 µM in assay [2] was in the range of 0 to 35%.
The matching figures for `CCN1CCN(CCCOc2ccc(S(=O)(=O)NCCCc3c[nH]c4ccccc34)cc2)CC1` [Example 36, N-(3-(1H-indol-3-yl)propyl)-4-(3-(4-ethylpiperazin-1-yl)propoxy)benzenesulfonamide]: 1 to 10 µM and 70 to 100%.
The like results for `O=C1CCCN1CCCOc1ccc(S(=O)(=O)NCCCc2c[nH]c3ccccc23)cc1` [Example 44, N-(3-(1H-indol-3-yl)propyl)-4-(3-(2-oxopyrrolidin-1-yl)propoxy)benzenesulfonamide] were, in that order, over 100 µM and 70 to 100%.
As to `O=S(=O)(NCCCc1c[nH]c2ccccc12)c1ccc(OCCCN2CCNCC2)cc1` [Example 45, N-(3-(1H-indol-3-yl)propyl)-4-(3-(piperazin-1-yl)propoxy)benzenesulfonamide], the IC50 in assay [1] (setting [5]) fell in the range of 1 to 10 µM. Further, the activity at 10 µM in assay [2] lay within 70 to 100%.
The matching figures for `CN1CCC(CCOc2ccc(S(=O)(=O)NCCCc3c[nH]c4ccccc34)cc2)CC1` [Example 55, N-(3-(1H-indol-3-yl)propyl)-4-(2-(1-methylpiperidin-4-yl)ethoxy)benzenesulfonamide]: 10 to 100 µM and 70 to 100%.
As to `CN1CCN(CCCOc2ccc(S(=O)(=O)NCCCc3c[nH]c4ccc(F)cc34)cc2)CC1` [Example 56, N-(3-(5-fluoro-1H-indol-3-yl)propyl)-4-(3-(4-methylpiperazin-1-yl)propoxy)benzenesulfonamide], the IC50 in assay [3] (setting [6]) was under 1 µM; in assay [3] (setting [7]), under 1 µM; in assay [1] (setting [8]), under 1 µM; in assay [1] (setting [5]) it was under 1 µM; in assay [4] (setting [9]) it was 1 to 10 µM; in assay [4] (setting [10]) it was under 10 µM. Also, in assay [2], the activity at 10 µM lay within 35 to 50%.
As to `CN1CCN(CCCOc2ccc(S(=O)(=O)N3CCC(c4c[nH]c5ccccc45)CC3)cc2)CC1` [Example 57, 3-(1-((4-(3-(4-methylpiperazin-1-yl)propoxy)phenyl)sulfonyl)piperidin-4-yl)-1H-indole], in assay [1] (setting [5]), the IC50 was in the range of 10 to 100 µM. Besides, the activity at 10 µM in assay [2] fell in the range of 70 to 100%.
For the molecule `Cc1[nH]c2ccccc2c1CCCNS(=O)(=O)c1ccc(OCCCN2CCN(C)CC2)cc1` [Example 58, N-(3-(2-methyl-1H-indol-3-yl)propyl)-4-(3-(4-methylpiperazin-1-yl)propoxy)benzenesulfonamide], the IC50 in assay [1] (setting [5]) was 1 to 10 µM. Also, in assay [2], the activity at 10 µM is 70 to 100%.
For `CN1CCC(CCCOc2ccc(S(=O)(=O)NCCCc3c[nH]c4ccc(F)cc34)cc2)CC1` [Example 59, N-(3-(5-fluoro-1H-indol-3-yl)propyl)-4-(3-(1-methylpiperidin-4-yl)propoxy)benzenesulfonamide], the IC50 is under 1 µM in assay [3] (setting [6]); under 1 µM in assay [3] (setting [7]); 1 to 10 µM in assay [1] (setting [5]); 1 to 10 µM in assay [4] (setting [9]); under 10 µM in assay [4] (setting [10]). In assay [2], the activity at 10 µM lay in the range of 35 to 50%.
Turning to `CN1CCC(CCCOc2ccc(S(=O)(=O)NCCCc3c[nH]c4ccccc34)cc2)CC1` [Example 60, N-(3-(1H-indol-3-yl)propyl)-4-(3-(1-methylpiperidin-4-yl)propoxy)benzenesulfonamide], the IC50 in assay [1] (setting [5]) was in the range of 1 to 10 µM. For the same molecule, in assay [2], the activity at 10 µM fell in the range of 50 to 70%.
For `O=S(=O)(NCCCc1c[nH]c2ccc(F)cc12)c1ccc(OCCCN2CCNCC2)cc1` [Example 61, N-(3-(5-fluoro-1H-indol-3-yl)propyl)-4-(3-(piperazin-1-yl)propoxy)benzenesulfonamide], the IC50 was under 1 µM in assay [3] (setting [6]); under 1 µM in assay [3] (setting [7]); under 1 µM in assay [1] (setting [8]); under 1 µM in assay [1] (setting [5]); 1 to 10 µM in assay [4] (setting [9]); under 10 µM in assay [4] (setting [10]). In addition, the activity at 10 µM in assay [2] fell in the range of 0 to 35%.
For the molecule `CN1CCN(CCCOc2ccc(S(=O)(=O)NCCCc3c[nH]c4ccc(Cl)cc34)cc2)CC1` [Example 66, N-(3-(5-chloro-1H-indol-3-yl)propyl)-4-(3-(4-methylpiperazin-1-yl)propoxy)benzenesulfonamide], the IC50 was under 1 µM in assay [3] (setting [6]); under 1 µM in assay [3] (setting [7]); under 1 µM in assay [1] (setting [8]); under 1 µM in assay [1] (setting [5]); 1 to 10 µM in assay [4] (setting [9]); under 10 µM in assay [4] (setting [10]). In addition, in assay [2], the activity at 10 µM was in the range of 0 to 35%.
`CNC1CN(CCCOc2ccc(S(=O)(=O)NCCCc3c[nH]c4ccc(Cl)cc34)cc2)C1` [Example 77, N-(3-(5-chloro-1H-indole-3-yl)propyl)-4-(3-(3-(methylamino)azetidine-1-yl)propoxy)benzenesulfonamide]: the IC50 in assay [3] (setting [6]) was 1 to 10 µM; in assay [1] (setting [8]), under 1 µM; in assay [1] (setting [5]), under 1 µM; in assay [4] (setting [9]), over 10 µM. The activity at 10 µM in assay [2] fell in the range of 0 to 35%.
In the case of `O=S(=O)(NCCCc1c[nH]c2ccc(Cl)cc12)c1ccc(OCCCN2CCC(Cl)CC2)cc1` [Example 78, N-(3-(5-chloro-1H-indol-3-yl)propyl)-4-(3-(4-chloropiperidin-1-yl)propoxy)benzenesulfonamide], the IC50 in assay [1] (setting [5]) was in the range of 1 to 10 µM. In addition, the activity at 10 µM in assay [2] was 0 to 35%.
The like results for `O=S(=O)(NCCCc1c[nH]c2ccc(Cl)cc12)c1ccc(OCCCN2CCC(F)CC2)cc1` [Example 80, N-(3-(5-chloro-1H-indol-3-yl)propyl)-4-(3-(4-fluoropiperidin-1-yl)propoxy)benzenesulfonamide] were, in that order, 1 to 10 µM and 35 to 50%.
The matching figures for `O=S(=O)(NCCCc1c[nH]c2ccc(Cl)cc12)c1ccc(OCCCN2CCC(C(F)(F)F)CC2)cc1` [Example 81, N-(3-(5-chloro-1H-indol-3-yl)propyl)-4-(3-(4-(trifluoromethyl)piperidin-1-yl)propoxy)benzenesulfonamide]: 1 to 10 µM and 0 to 35%.
On to `O=S(=O)(NCCCc1c[nH]c2ccc(Cl)cc12)c1ccc(OCCCN2CCC(F)(F)CC2)cc1` [Example 82, N-(3-(5-chloro-1H-indol-3-yl)propyl)-4-(3-(4,4-difluoropiperidin-1-yl)propoxy)benzenesulfonamide], for which the IC50 in assay [1] (setting [5]) was 1 to 10 µM. For the same molecule, the activity at 10 µM in assay [2] was in the range of 70 to 100%.
Regarding `CN1CCN(CCCOc2ccc(S(=O)(=O)NCCCc3c[nH]c4ccc(Cl)cc34)c3ccccc23)CC1` [Example 86, N-(3-(5-chloro-1H-indole-3-yl)propyl)-4-(3-(4-methylpiperazine-1-yl)propoxy)naphthalene-1-sulfonamide], the IC50 in assay [1] (setting [8]) and in assay [1] (setting [5]) was under 1 µM each time. The activity at 10 µM in assay [2] lay within 70 to 100%.
As for `O=S(=O)(NCCCc1c[nH]c2ccc(Cl)cc12)c1ccc(NCCCC2CCNCC2)cc1` [Example 88, N-(3-(5-chloro-1H-indole-3-yl)propyl)-4-((3-(piperidine-4-yl)propyl)amino)benzenesulfonamide], the IC50 in assay [3] (setting [6]) was under 1 µM; in assay [3] (setting [7]), under 1 µM; in assay [1] (setting [8]), under 1 µM; in assay [1] (setting [5]) it was under 1 µM; in assay [4] (setting [9]), over 10 µM. For the same molecule, the activity at 10 µM in assay [2] was in the range of 50 to 70%.
